The source of these data is paper PMC6270012, “Inhibitory Evaluation of Sulfonamide Chalcones on β-Secretase and Acylcholinesterase” (Molecules, 2012).

Format in all cases: biochemical
The target of test [1] is T1, BACE1 (Homo sapiens, UniProt P56817).
T1 construct: purchased RD System, Inc. (WI, USA)
Put plainly: BACE1 FRET peptide cleavage assay. The following applies: for Inhibition type: Lineweaver-Burk and Dixon plots. The protocol: In this assay, BACE1-catalyzed proteolysis of a synthetic oligopeptide substituted with a fluorescent dye and a quencher leads to an increase in fluorescence by breaking the tether between the dye and the quencher. […] The assay was carried out according to the supplied manual with small modifications.
The assay was carried out according to the supplied manual with modifications. Briefly, a mixture of 10 μL of assay buffer (50 mM sodium acetate, pH 4.5), 10 μL of BACE1 (1.0 U/mL), 10 μL of the substrate (750 nM Rh-[…]-Quencher in 50 mM sodium acetate, pH 4.5), and 10 μL of sample dissolved in 50 mM ammonium bicarbonate buffer (pH 7.8) was incubated for 60 min at room temperature in the dark. The mixture was irradiated at 545 nm and the emission intensity at 590 nm was recorded. The inhibition ratio was obtained by the following equation: Inhibition (%) = [1 − {(S−S0)/(C−C0)}] × 100 where C was the fluorescence of the control (enzyme, buffer, and substrate) after 60 min of incubation, C0 was the fluorescence of control at zero time, S was the fluorescence of the tested samples (enzyme, sample solution, and substrate) after incubation, and S0 was the fluorescence of the tested samples at zero time. To allow for the quenching effect of the samples, the sample solution was added to the reaction mixture C, and any reduction in fluorescence by the sample was then investigated. All data are the mean of three experiments.

For a further test, the target named is T2, human erythrocyte AChE (Homo sapiens, UniProt P22303).
T2 construct: 2 μL of human erythrocyte AChE (0.25 U/mL); from tissue; host or cells: human erythrocytes
T2 sequence (P22303 other isoform, or with tags, fused parts or gaps): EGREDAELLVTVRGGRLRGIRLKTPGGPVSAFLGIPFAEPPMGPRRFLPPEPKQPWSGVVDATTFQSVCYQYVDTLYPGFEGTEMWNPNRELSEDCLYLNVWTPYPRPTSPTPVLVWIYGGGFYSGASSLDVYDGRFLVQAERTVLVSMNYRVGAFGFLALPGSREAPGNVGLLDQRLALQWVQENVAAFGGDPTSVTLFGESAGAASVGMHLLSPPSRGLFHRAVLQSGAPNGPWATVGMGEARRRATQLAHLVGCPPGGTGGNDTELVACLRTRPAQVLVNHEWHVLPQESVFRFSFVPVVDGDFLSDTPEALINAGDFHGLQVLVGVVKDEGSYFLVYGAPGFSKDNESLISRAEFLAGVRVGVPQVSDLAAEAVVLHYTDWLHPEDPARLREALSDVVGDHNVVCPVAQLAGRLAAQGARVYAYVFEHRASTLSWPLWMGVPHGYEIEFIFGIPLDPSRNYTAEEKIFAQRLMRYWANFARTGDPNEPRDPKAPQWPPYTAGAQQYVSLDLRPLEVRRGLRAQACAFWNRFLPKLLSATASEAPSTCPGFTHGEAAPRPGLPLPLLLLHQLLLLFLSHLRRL
The test can be described thus: Cholinesterase inhibitory activity (Ellman), AChE. As to conditions: for IC50: read-out: IC50 erythrocytes AChE; for Ki: read-out: Ki (inhibition constant) AChE. The protocol: (§1) Cholinesterase was assayed according to standard procedures by following the hydrolysis of acetylthiocholine iodide (AtCh) or butyrylthiocholine iodide (BtCh) by monitoring formation of 5-thio-2-nitrobenzoate from 5-5'-dithiobis(2-nitrobenzoic acid) spectrometrically at 412 nm. The reaction mixture contained 100 mM sodium phosphate buffer (pH 8.0), 20 μL of test sample solution and either 2 μL of human erythrocyte AChE (0.25 U/mL) or 2 μL of equine serum BChE (0.05 U/mL) solution, which were mixed and incubated for 10 min at room temperature. Assays were then initiated with the addition of 30 μL 5-5'-dithiobis(2-nitrobenzoic acid) (3.3 mM) and, respectively, 20 μL of AtCh (1 mM), and 7 μL of BtCh (1 mM). All assays were performed in triplicate. […] Kinetic parameters were determined using the Lineweaver-Burk double-reciprocal-plot method at increasing concentration of substrates and inhibitors.

For the next test, the target named is T3, equine serum BChE (Equus caballus, UniProt P81908).
T3 construct: 2 μL of equine serum BChE (0.05 U/mL) solution; from tissue; host or cells: equine serum
T3 sequence (P81908 whole entry): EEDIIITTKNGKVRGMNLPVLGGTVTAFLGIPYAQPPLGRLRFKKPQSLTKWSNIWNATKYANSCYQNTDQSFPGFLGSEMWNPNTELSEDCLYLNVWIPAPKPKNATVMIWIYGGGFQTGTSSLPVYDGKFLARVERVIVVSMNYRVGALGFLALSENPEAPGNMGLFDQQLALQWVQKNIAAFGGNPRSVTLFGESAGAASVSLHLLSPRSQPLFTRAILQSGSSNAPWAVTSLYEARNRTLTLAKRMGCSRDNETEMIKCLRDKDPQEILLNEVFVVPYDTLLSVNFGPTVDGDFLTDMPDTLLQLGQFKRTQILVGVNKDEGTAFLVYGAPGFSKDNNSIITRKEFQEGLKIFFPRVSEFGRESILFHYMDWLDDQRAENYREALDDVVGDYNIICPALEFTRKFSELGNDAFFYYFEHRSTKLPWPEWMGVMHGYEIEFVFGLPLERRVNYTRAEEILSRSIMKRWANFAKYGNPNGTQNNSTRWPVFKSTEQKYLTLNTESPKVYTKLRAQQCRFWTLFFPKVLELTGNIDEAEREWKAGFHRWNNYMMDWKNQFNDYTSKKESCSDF
The test can be described thus: Cholinesterase inhibitory activity (Ellman), BChE. The following applies: for Ki: read-out: Ki (inhibition constant) BChE. The procedure:
as §1

For test [2], the target named is T1, BACE1. The test can be described thus: Slow and time-dependent inhibitory activity on BACE1 (progress curves). The following applies: preincubation 0-60 min, progress curves 3,600 s. The protocol:
To further investigate the inhibition mechanism, time dependence of BACE1inhibition by compound 5a was subsequently probed. The enzyme was preincubated with […] (between 0 and 60 min) and the residual enzyme activity was measured by calculating the initial velocity (Vi) of the hydrolysis (Figure 3B). Progress curves were continued to be run up for 3,600 s.
Slow and time-dependent assays and progress curves were carried out using 1 U/mL unit BACE1, and 10 μL substrate in 50 mM ammonium bicarbonate pH 7.8 at 37 °C. Enzyme activities were measured continuously for 3,600 s spectrophotometrically. To determine the kinetic parameters associated with time dependent inhibition of BACE1, progress curves for 3,600 s were obtained at one inhibitor concentration using fixed substrate concentrations. The data were analyzed using the nonlinear regression program [Sigma Plot (SPCC Inc., Chicago, IL, USA)].

Setting [3] is: BACE1, Dixon plot, read-out: Ki (inhibition constant).
Where [4] appears, read: BACE1 activity, mean of three experiments ± SD.

Entries after “also recorded” stand apart in the source; their conditions may differ. Read-outs that look alike come from different tables or passages of the source.

T1 sequence (P56817 46-501): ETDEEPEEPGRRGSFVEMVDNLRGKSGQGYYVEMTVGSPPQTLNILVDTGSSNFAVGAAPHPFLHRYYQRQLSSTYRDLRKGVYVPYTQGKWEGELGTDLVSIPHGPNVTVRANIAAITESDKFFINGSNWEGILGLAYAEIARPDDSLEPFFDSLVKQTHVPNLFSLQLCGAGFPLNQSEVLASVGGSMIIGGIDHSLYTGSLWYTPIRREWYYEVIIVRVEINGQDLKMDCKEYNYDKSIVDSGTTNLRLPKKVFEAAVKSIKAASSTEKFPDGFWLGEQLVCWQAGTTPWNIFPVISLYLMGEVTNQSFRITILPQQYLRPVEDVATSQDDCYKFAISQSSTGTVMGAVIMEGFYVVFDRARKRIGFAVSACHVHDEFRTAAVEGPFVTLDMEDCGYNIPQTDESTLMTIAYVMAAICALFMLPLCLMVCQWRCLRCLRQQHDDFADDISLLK

With `O=C(/C=C/c1ccc(O)cc1)c1ccc(NS(=O)(=O)c2ccc([N+](=O)[O-])cc2)cc1` [Compound 4g, 4′-(4-Nitrobenzenesulfonamide)-4-hydroxychalcone], the Ki at BACE1 [1] (setting [3]) amounted to 94.8 µM. At BACE1 [1] (setting [4]), the IC50 amounted to 107 ± 2.7 µM.
The matching figures for `Nc1ccc(C(=O)/C=C/c2ccc(O)cc2)cc1` [Compound 1, 4′-Amino-4-hydroxychalcone]: 43.8 µM and 48.2 ± 1.2 µM.
As for `Nc1ccc(C(=O)/C=C/c2ccc(O)c(O)c2)cc1` [Compound 2, 4′-Amino-3,4-dihydroxychalcone], the Ki on BACE1 [1] (setting [3]) was 10.5 µM. In addition, 17.7 ± 0.8 µM corresponded to half-maximal inhibition against BACE1 [1] (setting [4]) (IC50).
In the case of `O=C(/C=C/c1ccc(O)c(O)c1)c1ccc(NS(=O)(=O)c2ccccc2)cc1` [Compound 5b, 4′-(Benzenesulfonamide)-3,4-dihydroxychalcone], the Ki on BACE1 [1] (setting [3]) is 3.78 µM; on human erythrocyte AChE, 57.2 µM; on equine serum BChE, 63.5 µM. The IC50 at BACE1 [1] (setting [4]) is 4.59 ± 1.5 µM; on human erythrocyte AChE, 75.4 µM; against equine serum BChE it was 79 µM.
In the case of `O=C(/C=C/c1ccc(O)c(O)c1)c1ccc(NS(=O)(=O)c2ccc(F)cc2)cc1` [Compound 5f, 4′-(4-Fluorobenzenesulfonamide)-3,4-dihydroxychalcone], the Ki at BACE1 [1] (setting [3]) was determined as 10.8 µM. Further, half-maximal inhibition on BACE1 [1] (setting [4]) (IC50) was put at 8.95 ± 1 µM.
For `Cc1ccc(S(=O)(=O)Nc2ccc(C(=O)/C=C/c3ccc(O)cc3)cc2)cc1` [Compound 4a, 4'-(4-Toluenesulfonamide)-4-hydroxychalcone], the Ki at BACE1 [1] (setting [3]) stood at 0.56 µM; at human erythrocyte AChE, 40.4 µM; at equine serum BChE it was 25.3 µM. Besides, at BACE1 [1] (BACE1), the Inhibition type entry was “mixed type”. Further, the figures for the IC50 against BACE1 [1] (setting [4]), on human erythrocyte AChE and against equine serum BChE were 1.44 ± 0.2 µM, 56.1 µM and 47.4 µM, respectively.
With `Cc1ccc(S(=O)(=O)Nc2ccc(C(=O)/C=C/c3ccc(O)cc3O)cc2)cc1` [Compound 6, 4'-(4-Toluenesulfonamide)-2,4-dihydroxychalcone], the inhibition constant (Ki) at BACE1 [1] (setting [3]) was determined as 1.89 µM. The compound further registered an IC50 at BACE1 [1] (setting [4]) of 3.6 ± 0.3 µM.
`Nc1ccc(S(=O)(=O)Nc2ccc(C(=O)/C=C/c3ccc(O)cc3)cc2)cc1` [Compound 4f, 4′-(4-Aminobenzenesulfonamide)-4-hydroxychalcone]: the Ki is 4.19 µM at BACE1 [1] (setting [3]), 61.5 µM on human erythrocyte AChE and 19 µM on equine serum BChE. Besides, the figures for the IC50 on BACE1 [1] (setting [4]), on human erythrocyte AChE and at equine serum BChE were 5.58 ± 1.4 µM, 95.8 µM and 34.3 µM, respectively.
`O=C(/C=C/c1ccc(O)cc1)c1ccc(NS(=O)(=O)c2ccc(F)cc2)cc1` [Compound 4h, 4′-(4-Fluorobenzenesulfonamide)-4-hydroxychalcone] yielded an IC50 against BACE1 [1] (setting [4]) of 120 ± 3.2 µM.
For the compound `Nc1ccc(S(=O)(=O)Nc2ccc(C(=O)/C=C/c3ccc(O)c(O)c3)cc2)cc1` [Compound 5d, 4′-(4-Aminobenzenesulfonamide)-3,4-dihydroxychalcone], the Ki at BACE1 [1] (setting [3]) amounted to 0.69 µM. At BACE1 [1] (setting [4]), this compound returned an IC50 of 0.69 ± 0.04 µM.
Consider `CC(=O)Nc1ccc(C(=O)/C=C/c2ccc(O)cc2)cc1` [Compound 3, 4′-Acetamido-4-hydroxychalcone], for which the IC50 at BACE1 [1] (setting [4]) was greater than 200 µM. Besides, the “BACE1 inhibition” value at BACE1 [1] (at concentrations as high as 200 μM) was “inactive”.
Regarding `O=C(/C=C/c1ccc(O)cc1)c1ccc(NS(=O)(=O)c2ccc(O)cc2)cc1` [Compound 4d, 4′-(4-Hydroxybenzenesulfonamide)-4-hydroxychalcone], at BACE1 [1] (setting [3]), the Ki stood at 1.49 µM. This compound also showed an IC50 against BACE1 [1] (setting [4]) of 2.88 ± 0.5 µM.
Consider `Cc1ccc(S(=O)(=O)Nc2ccc(C(=O)/C=C/c3ccccc3)cc2)cc1` [Compound 4b, 4′-(4-Toluenesulfonamido)-chalcone], for which the IC50 against BACE1 [1] (setting [4]) worked out at 169 ± 2.4 µM.
On to `O=C(/C=C/c1ccc(O)c(O)c1)c1ccc(NS(=O)(=O)c2ccc([N+](=O)[O-])cc2)cc1` [Compound 5e, 4′-(4-Nitrobenzenesulfonamide)-3,4-dihydroxychalcone], for which the Ki at BACE1 [1] (setting [3]) amounted to 92.4 µM. The compound also came in with an IC50 against BACE1 [1] (setting [4]) of 101 ± 2.4 µM.
Take `O=C(/C=C/c1ccc(O)cc1)c1ccc(NS(=O)(=O)c2ccccc2)cc1` [Compound 4c, 4′-(Benzenesulfonamide)-4-hydroxychalcone]: the results for the Ki at BACE1 [1] (setting [3]), on human erythrocyte AChE and at equine serum BChE were 5.83 µM, 80.3 µM and 72.2 µM, respectively. Besides, the IC50 at BACE1 [1] (setting [4]) was found to be 6.28 ± 0.7 µM; on human erythrocyte AChE, 83.3 µM; against equine serum BChE, 75 µM.
On to `O=c1c(O)c(-c2ccc(O)cc2O)oc2cc(O)cc(O)c12` [Morin, reference compound], for which the IC50 against BACE1 [1] (BACE1) was 12.3 µM.
`Cc1ccc(S(=O)(=O)Nc2ccc(C(=O)/C=C/c3ccc(O)c(O)c3)cc2)cc1` [Compound 5a, 4'-(4-Toluenesulfonamide)-3,4-dihydroxychalcone]: on BACE1 [1] (BACE1), the Inhibition type entry is “mixed inhibitor”. Further, the Ki was found to be 0.07 µM at BACE1 [1] (BACE1, read-out: Ki); 55.8 µM at human erythrocyte AChE; 9.8 µM on equine serum BChE. Moreover, the Reversibility of inhibition entry on BACE1 [1] (BACE1, residual activity versus enzyme concentration) is on record as “reversible inhibitor”. In addition, the IC50 is 0.21 ± 0.02 µM on BACE1 [1] (setting [4]), 75.9 µM on human erythrocyte AChE and 19.5 µM against equine serum BChE. In addition, the “Time dependence of inhibition” value on BACE1 [2] is given as “slow binding inhibitor; also recorded: time-dependent”.
As for `O=C(/C=C/c1ccc(O)c(O)c1)c1ccc(NS(=O)(=O)c2ccc(O)cc2)cc1` [Compound 5c, 4′-(4-Hydroxybenzenesulfonamide)-3,4-hydroxychalcone], the Ki at BACE1 [1] (setting [3]) turned out to be 0.56 µM; on human erythrocyte AChE, 47.6 µM; on equine serum BChE it was 26.6 µM. Further, the IC50 at BACE1 [1] (setting [4]) is 0.62 ± 0.03 µM; on human erythrocyte AChE, 57.4 µM; on equine serum BChE, 24.7 µM.
Take `COc1ccc(S(=O)(=O)Nc2ccc(C(=O)/C=C/c3ccc(O)cc3)cc2)cc1` [Compound 4e, 4′-(4-Methoxybenzenesulfonamido)-4-hydroxychalcone]: the Ki on BACE1 [1] (setting [3]) was found to be 75.2 µM. It took 79.3 ± 2.3 µM to reach half-maximal inhibition at BACE1 [1] (setting [4]) (IC50).
